From patent US9458124B2, “Substituted pyran derivatives” (Wayne State University, priority 2013, dated 2016) come the findings set out here.

Experiment [1] deals with rats. Nature of the experiment: Forced swimming test (animal model of depression), duration of immobility. In kind it is in vivo, rat. Particulars: sub-chronic oral administration, P<0.01. Here is the method:
Compound D-525 was evaluated in Force Swim test which is a well-known animal model of depression. The test procedure consisted of a pretest and test session separated by 24 h. Drugs or vehicle were administered orally (p.o) by following the timeline as described in the standard protocol. Each rat underwent a 5-min swim session following drug administration, which was videotaped and scored later.
All drugs were prepared freshly on the test days. Compound D-525 and imipramine were dissolved in deionized water. All drugs and vehicles were administered p.o. D-525 was administered at a dose of 12.5 and 25 mg/kg. An individual, blinded to the treatment, scored the videotapes for immobility. Immobility scores were analyzed by one way ANOVA test which indicated significant difference between drug treated animals and vehicle.
FIG. 11 provides a bar chart showing the effect of sub-chronic oral administration of vehicle and D-525 on the duration of immobility in the forced swimming test in rats. […] Asterisks indicate a statistically significant difference toward control group that received saline p.o. **P<0.01. Each treatment group contained four to seven rats.

Experiment [2] concerns the target T1, NET (Rattus norvegicus, UniProt Q63380).
T1 construct: from tissue; host or cells: rat brain
Nature of the experiment: NET uptake inhibition, [3H]DA, rat brain. Format: biochemical. Particulars: number in parentheses within cell.

Experiment [3] addresses T2, DAT (Rattus norvegicus, UniProt P23977).
T2 construct: from tissue; host or cells: rat brain
Nature of the experiment: DAT uptake inhibition, [3H]DA, rat brain. Format: biochemical. Particulars: number in parentheses within cell.

Experiment [4] has as its target T3, SERT (Rattus norvegicus, UniProt P31652).
T3 construct: from tissue; host or cells: rat brain
The experiment in a line: SERT uptake inhibition, [3H]-5-HT, rat brain. Format: biochemical. Particulars: number in parentheses within cell.

By Ki is commonly meant a dissociation constant, usually derived from enzyme kinetics or from competition with a known ligand.

T2 sequence (P23977 whole entry): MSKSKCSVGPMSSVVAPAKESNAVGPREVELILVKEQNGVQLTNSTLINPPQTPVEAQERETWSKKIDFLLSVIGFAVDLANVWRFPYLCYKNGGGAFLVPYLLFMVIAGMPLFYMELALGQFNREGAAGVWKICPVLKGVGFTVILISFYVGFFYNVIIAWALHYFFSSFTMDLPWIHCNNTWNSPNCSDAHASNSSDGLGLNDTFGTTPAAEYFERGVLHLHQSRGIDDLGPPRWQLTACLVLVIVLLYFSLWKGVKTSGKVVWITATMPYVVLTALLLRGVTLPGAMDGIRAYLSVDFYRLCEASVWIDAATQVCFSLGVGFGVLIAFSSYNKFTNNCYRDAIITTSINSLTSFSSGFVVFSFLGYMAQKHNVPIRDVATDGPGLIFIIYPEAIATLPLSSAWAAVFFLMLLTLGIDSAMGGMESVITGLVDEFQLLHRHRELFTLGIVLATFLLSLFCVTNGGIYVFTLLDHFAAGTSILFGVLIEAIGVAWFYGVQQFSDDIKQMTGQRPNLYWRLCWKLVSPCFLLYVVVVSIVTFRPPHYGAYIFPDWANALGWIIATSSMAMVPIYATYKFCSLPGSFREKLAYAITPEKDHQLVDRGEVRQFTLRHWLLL
T1 sequence (Q63380 1-617): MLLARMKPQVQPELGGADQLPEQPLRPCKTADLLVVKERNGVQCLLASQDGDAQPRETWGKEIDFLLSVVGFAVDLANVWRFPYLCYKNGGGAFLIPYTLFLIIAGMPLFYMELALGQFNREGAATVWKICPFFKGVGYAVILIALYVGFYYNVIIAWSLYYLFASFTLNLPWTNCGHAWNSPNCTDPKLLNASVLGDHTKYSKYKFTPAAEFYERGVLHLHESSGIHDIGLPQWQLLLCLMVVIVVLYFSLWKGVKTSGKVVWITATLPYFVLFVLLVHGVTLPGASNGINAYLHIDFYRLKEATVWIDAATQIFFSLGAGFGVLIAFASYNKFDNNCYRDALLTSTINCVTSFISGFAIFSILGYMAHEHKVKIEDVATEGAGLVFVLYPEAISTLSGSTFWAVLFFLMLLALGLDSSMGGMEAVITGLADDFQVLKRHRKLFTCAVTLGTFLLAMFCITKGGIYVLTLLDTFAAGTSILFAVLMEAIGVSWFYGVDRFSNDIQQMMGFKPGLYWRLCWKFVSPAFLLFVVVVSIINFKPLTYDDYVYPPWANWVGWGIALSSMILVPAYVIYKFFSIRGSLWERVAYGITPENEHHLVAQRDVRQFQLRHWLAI
T3 sequence (P31652 whole entry): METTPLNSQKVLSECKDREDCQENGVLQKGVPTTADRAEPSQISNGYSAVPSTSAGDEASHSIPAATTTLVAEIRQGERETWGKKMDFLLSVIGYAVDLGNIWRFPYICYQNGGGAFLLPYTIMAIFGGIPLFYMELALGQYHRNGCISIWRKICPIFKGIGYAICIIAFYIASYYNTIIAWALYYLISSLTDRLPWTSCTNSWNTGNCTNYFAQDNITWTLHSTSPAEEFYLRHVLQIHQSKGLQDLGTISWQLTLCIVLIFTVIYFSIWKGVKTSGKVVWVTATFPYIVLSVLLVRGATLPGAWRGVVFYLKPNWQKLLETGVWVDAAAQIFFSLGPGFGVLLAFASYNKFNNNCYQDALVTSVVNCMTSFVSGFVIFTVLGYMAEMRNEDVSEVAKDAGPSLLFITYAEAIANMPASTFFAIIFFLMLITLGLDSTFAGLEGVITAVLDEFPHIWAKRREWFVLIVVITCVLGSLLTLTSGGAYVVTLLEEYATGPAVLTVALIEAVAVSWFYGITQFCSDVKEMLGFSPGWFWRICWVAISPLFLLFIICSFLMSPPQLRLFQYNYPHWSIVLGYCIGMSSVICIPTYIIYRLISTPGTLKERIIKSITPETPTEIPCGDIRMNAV

For the molecule `Cn1c(=O)oc2cc(CN[C@@H]3CO[C@H](C(c4ccc(F)cc4)c4ccc(F)cc4)C[C@H]3O)ccc21` [6f, D-525, 6-((((3R,4R,6S)-6-(bis(4-fluorophenyl)methyl)-4-hydroxytetrahydro-2H-pyran-3-yl)amino)methyl)-3-methylbenzo[d]oxazol-2(3H)-one], the “effect on duration of immobility in the forced swimming test vs vehicle (Dunnett's analysis)” value in experiment [1] (12 mg/kg) and in experiment [1] (25 mg/kg) was “statistically significant different compared to vehicle” in each case. Moreover, the figures for the Ki in experiment [2], in experiment [3] and in experiment [4] were 25.8 ± 7.7 nM, 25.3 ± 6.2 nM and 26.9 ± 2.6 nM, respectively.
